Measurements taken from US12370235B2, “Synthetic, non-natural antimicrobial peptides inspired by Staphylococcus auricularis delta toxin” (University of Saskatchewan, priority 2021, dated 2025).
Ends that are not written are not given here.

Legend:
[1] = system: Klebsiella pneumoniae; experiment: SYTOX Green membrane integrity assay; format: cell-based; details: 25 μg/mL; resistant strain
[2] = system: S. pseudintermedius canine isolate MRSP24; experiment: MIC, broth dilution; format: cell-based, Staphylococcus pseudintermedius
Experimental: (§1) MIC determination. MICs were measured using peptides with 95% purity. For bacterial studies, cation-adjusted Mueller Hinton (MH) broth was used as the growth medium whereas Yeast Peptone Dextrose (YPD; 10 g/L yeast extract, 20 g/L peptone, 20 g/L dextrose) was used for Candida spp. and other yeast. Microorganisms were diluted to an optical density of […] in MH or YPD broth and a 180 μl volume was mixed with 20 μl of peptide arrayed as a 2-fold dilution series in a flat-bottom 96-well microtitre plate. A control was performed using 20 μl of sterile water. Plates were incubated as standing cultures overnight at 37° C.
(§2) Determination of minimum inhibitory concentrations. The MICs were measured for bioactive peptides identified from the initial screen. For bacterial studies, cation-adjusted Mueller Hinton (MH) broth was used as the growth medium whereas YPD was used for C. albicans. Bacterial cultures were diluted to a OD value of 6×10^−4 in MH broth and a 180 μl volume was mixed with 20 μl of peptide arrayed as 2-fold dilution series in a 96-well plate. For the positive control, 20 μl of sterile water was used. Plates were incubated as standing cultures overnight at 37° C. The lowest peptide concentration that resulted no observed microbial growth after an overnight treatment was defined as the MIC.

[3] = system: S. pseudintermedius canine isolate MSSP42; experiment: MIC, broth dilution; format: cell-based, Staphylococcus pseudintermedius
Experimental: as §1, §2

[4] = system: S. pseudintermedius human isolate SPC001 (MSSP); experiment: MIC, broth dilution; format: cell-based, Staphylococcus pseudintermedius
Experimental: as §1, §2

[5] = system: S. pseudintermedius human isolate SPC020 (MSSR); experiment: MIC, broth dilution; format: cell-based, Staphylococcus pseudintermedius
Experimental: as §1, §2

[6] = system: S. pseudintermedius human isolate SPC002 (MSSP); experiment: MIC, broth dilution; format: cell-based, Staphylococcus pseudintermedius
Experimental: as §1, §2

[7] = system: S. pseudintermedius canine isolate MRSP16; experiment: MIC, broth dilution; format: cell-based, Staphylococcus pseudintermedius
Experimental: as §1, §2

[8] = system: Candida lusitaniae AR 398; experiment: MIC, YPD broth, CDC and FDA AR Candida isolate panel; format: cell-based; details: Table 9 top part: titrations from 1.56 to 100 μg/mL
How it was run: (§3)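 Static overnight growth at 37° C of yeast (optical density […]) challenged with doubling peptide dilutions; sterile water served as the no-peptide control.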

[9] = system: Candida duobushaemulonii AR 391; experiment: as above; format: cell-based; details: Table 9 top part: titrations from 1.56 to 100 μg/mL
How it was run: as §3

[10] = system: Candida krusei AR 397; experiment: as above; format: cell-based; details: Table 9 top part: titrations from 1.56 to 100 μg/mL
How it was run: as §3

[11] = system: Saccharomyces cerevisiae AR 399; experiment: as above; format: cell-based; details: Table 9 top part: titrations from 1.56 to 100 μg/mL
How it was run: as §3

[12] = system: Candida duobushaemulonii AR 392; experiment: as above; format: cell-based; details: Table 9 top part: titrations from 1.56 to 100 μg/mL
How it was run: as §3

[13] = system: Candida haemulonii AR 393; experiment: as above; format: cell-based; details: Table 9 top part: titrations from 1.56 to 100 μg/mL
How it was run: as §3

[14] = system: Saccharomyces cerevisiae AR 400; experiment: as above; format: cell-based; details: Table 9 top part: titrations from 1.56 to 100 μg/mL
How it was run: as §3

[15] = system: Candida duobushaemulonii AR 394; experiment: as above; format: cell-based; details: Table 9 top part: titrations from 1.56 to 100 μg/mL
How it was run: as §3

[16] = system: Kodamae ohmeri AR 396; experiment: as above; format: cell-based; details: Table 9 top part: titrations from 1.56 to 100 μg/mL
How it was run: as §3

[17] = system: S. aureus ATCC 33592 (MRSA SCCmec type III); experiment: MIC, broth dilution; format: cell-based, Staphylococcus aureus; details: Table 5; STIP3 variants, highest concentration 100 μg/mL
How it was run: (§4)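 MIC defined as the lowest peptide level giving no growth after overnight standing incubation at 37° C. Bacteria at OD 6×10^−4 in cation-adjusted MH broth met 2-fold serial peptide dilutions; peptide purity 95%.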

[18] = system: S. aureus ATCC BAA-1683 (MRSA SCCmec type IV); experiment: MIC, broth dilution; format: cell-based, Staphylococcus aureus; details: Table 5; STIP3 variants, highest concentration 100 μg/mL
How it was run: as §4

[19] = system: S. aureus ATCC BAA-2313 (MRSA SCCmec type XI); experiment: MIC, broth dilution; format: cell-based, Staphylococcus aureus; details: Table 5; STIP3 variants, highest concentration 100 μg/mL
How it was run: as §4

[20] = system: S. aureus ATCC BAA-41 (MRSA SCCmec type II); experiment: MIC, broth dilution; format: cell-based, Staphylococcus aureus; details: Table 5; STIP3 variants, highest concentration 100 μg/mL
How it was run: as §4

[21] = system: S. aureus ATCC 29213; experiment: MIC, broth dilution; format: cell-based, Staphylococcus aureus; details: Table 5; STIP3 variants, highest concentration 100 μg/mL
How it was run: as §4

[22] = system: S. aureus ATCC BAA-2094 (MRSA SCCmec type V); experiment: MIC, broth dilution; format: cell-based, Staphylococcus aureus; details: Table 5; STIP3 variants, highest concentration 100 μg/mL
How it was run: as §4

[23] = system: S. aureus bovid isolate (RDM-1); experiment: MIC, broth dilution; format: cell-based, Staphylococcus aureus; details: clinical isolate
How it was run: as §4

[24] = system: S. aureus ATCC BAA-42 (MRSA SCCmec type VI); experiment: MIC, broth dilution; format: cell-based, Staphylococcus aureus; details: Table 5; STIP3 variants, highest concentration 100 μg/mL
How it was run: as §4

[25] = system: S. aureus ATCC BAA-44 (MRSA SCCmec type I); experiment: MIC, broth dilution; format: cell-based, Staphylococcus aureus; details: Table 5; STIP3 variants, highest concentration 100 μg/mL
How it was run: as §4

[26] = system: C. albicans MYA-2876; experiment: MIC, YPD broth; format: cell-based, Candida albicans; details: Table 8
How it was run: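 Yeast cells were diluted in YPD broth, and 180 μl aliquots were mixed with 20 μl of peptide from 2-fold serial dilutions in flat-bottom 96-well microtitre plates. Wells receiving 20 μl sterile water served as controls. After standing incubation overnight at 37° C, the MIC was taken as the lowest peptide concentration with no visible microbial growth.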

[27] = system: C. albicans Y537; experiment: MIC, YPD broth; format: cell-based, Candida albicans; details: Table 8
[28] = system: Mannheimia haemolytica ATCC 33393; experiment: MIC, broth dilution; format: cell-based; details: Table 11; highest concentration 25 μg/mL
How it was run: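 Read-out is the lowest peptide concentration showing no growth after an overnight standing culture at 37 °C. Two-fold serial dilutions of 95%-pure peptide were tested against M. haemolytica ATCC 33393 at OD 6×10^−4 in cation-adjusted MH broth.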

TVGGLVKWILKTVKKFA-NH2 [STIP3-29, TVGGLVKWILKTVKKFA-NH2]
SYTOX entry [1]: SYTOX was slow to enter
MIC [2]: 3.13 µg/mL
MIC [3]: 3.13 µg/mL
MIC [4]: 3.13 µg/mL
MIC [5]: 3.13 µg/mL
MIC [6]: 3.13 µg/mL
MIC [7]: 3.13 µg/mL
MIC (μg/mL) Candida lusitaniae AR 398 [8]: 25 µg/mL
MIC (μg/mL) Candida duobushaemulonii AR 391 [9]: 25 µg/mL
MIC (μg/mL) Candida krusei AR 397 [10]: 50 µg/mL
MIC (μg/mL) Saccharomyces cerevisiae AR 399 [11]: 50 µg/mL
MIC (μg/mL) Candida duobushaemulonii AR 392 [12]: 50 µg/mL
MIC (μg/mL) Candida haemulonii AR 393 [13]: 200 µg/mL
MIC (μg/mL) Saccharomyces cerevisiae AR 400 [14]: 25 µg/mL
MIC (μg/mL) Candida duobushaemulonii AR 394 [15]: 100 µg/mL
MIC (μg/mL) Kodamae ohmeri AR 396 [16]: 50 µg/mL
MIC S. aureus ATCC 33592 (III) [17]: 6.25 µg/mL
MIC S. aureus ATCC BAA 1683 (IV) [18]: 6.25 µg/mL
MIC S. aureus ATCC BAA 2313 (XI) [19]: 6.25 µg/mL
MIC S. aureus ATCC BAA 41 (II) [20]: 6.25 µg/mL
MIC S. aureus ATCC 29213 [21]: 12.5 µg/mL
MIC S. aureus ATCC BAA 2094 (V) [22]: 6.25 µg/mL
MIC [23]: 6.25 µg/mL
MIC S. aureus ATCC BAA 42 (VI) [24]: 6.25 µg/mL
MIC S. aureus ATCC BAA 44 (I) [25]: 6.25 µg/mL
MIC C. albicans MYA-2876 [26]: 12.5 µg/mL
MIC C. albicans Y537 [27]: 25 µg/mL
MIC (μg/mL) M. haemolytica [28]: 25 µg/mL
